Laboratory results taken from US12503453B2, “USP7 inhibition” (Dana-Farber Cancer Institute, Inc., priority 2018, dated 2025).

Each compound was assayed against full length USP7 (Homo sapiens (Human), UniProt Q93009) (assay: Ub-AMC enzymatic assay with full-length USP7). Conditions: Table 1; 6 hours pre-incubation, Ub-AMC; read-out: IC50 (nM), USP7 activity in USP7 assay.
Sequence of full length USP7 (Q93009 whole entry): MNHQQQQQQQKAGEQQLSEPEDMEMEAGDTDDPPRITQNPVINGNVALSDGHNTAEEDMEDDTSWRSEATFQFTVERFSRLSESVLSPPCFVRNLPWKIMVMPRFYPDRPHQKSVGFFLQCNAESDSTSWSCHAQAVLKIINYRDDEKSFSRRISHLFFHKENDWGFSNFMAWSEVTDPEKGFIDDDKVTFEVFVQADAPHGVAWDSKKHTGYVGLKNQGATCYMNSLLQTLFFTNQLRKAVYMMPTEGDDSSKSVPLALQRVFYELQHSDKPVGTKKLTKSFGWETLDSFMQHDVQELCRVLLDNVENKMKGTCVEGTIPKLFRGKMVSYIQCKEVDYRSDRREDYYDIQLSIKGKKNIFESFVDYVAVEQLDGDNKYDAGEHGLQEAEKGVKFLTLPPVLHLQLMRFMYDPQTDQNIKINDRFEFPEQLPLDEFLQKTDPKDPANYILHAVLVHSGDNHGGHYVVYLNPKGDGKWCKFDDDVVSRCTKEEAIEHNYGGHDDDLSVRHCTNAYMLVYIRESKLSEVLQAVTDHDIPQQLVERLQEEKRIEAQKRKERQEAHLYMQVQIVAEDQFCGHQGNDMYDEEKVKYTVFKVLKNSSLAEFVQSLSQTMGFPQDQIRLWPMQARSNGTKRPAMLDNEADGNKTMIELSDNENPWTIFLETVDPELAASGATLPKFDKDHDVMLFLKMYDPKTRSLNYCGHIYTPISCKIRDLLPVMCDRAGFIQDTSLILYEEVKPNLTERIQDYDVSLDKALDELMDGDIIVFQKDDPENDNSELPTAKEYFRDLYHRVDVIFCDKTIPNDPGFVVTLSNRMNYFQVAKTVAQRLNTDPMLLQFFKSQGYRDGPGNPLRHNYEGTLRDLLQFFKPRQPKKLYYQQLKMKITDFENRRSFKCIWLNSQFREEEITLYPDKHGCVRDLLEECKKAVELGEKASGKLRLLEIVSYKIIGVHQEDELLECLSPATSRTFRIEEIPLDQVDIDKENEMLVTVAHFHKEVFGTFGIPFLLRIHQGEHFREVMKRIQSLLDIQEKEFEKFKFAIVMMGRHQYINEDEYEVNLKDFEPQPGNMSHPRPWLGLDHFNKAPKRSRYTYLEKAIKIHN
Format: biochemical
Experimental: Both constructs were overexpressed in E. coli BL21 (DE3). Cells were grown at 37° C. to an OD of 0.9, cooled to 16° C., induced with 500 μM isopropyl-1-thio-D-galactopyranoside (IPTG), incubated overnight at 16° C., collected by centrifugation, and stored at −80° C. Cell pellets were sonicated in lysis buffer (25 mM Tris pH 8, 1 M NaCl, and 10 mM BME) supplemented with 10 μg/ml phenylmethanesulfonylfluoride (PMSF) and the resulting lysate was centrifuged at 30,000×g for 40 min. Ni-NTA beads (Qiagen) were mixed with lysate supernatant for 2 hours, and washed with lysis buffer supplemented with 25 mM imidazole. The bound protein was eluted with lysis buffer supplemented with 300 mM imidazole. The sample was then concentrated to 1 ml (30 kDa concentrator; Amicon Ultra, Millipore), and run on a Superdex 200 (GE healthcare) in buffer containing 25 mM HEPES pH 7.5, 200 mM NaCl, and 1 mM DTT. Fractions were pooled, concentrated and frozen at −80° C.
Full length USP7 was tested for its activity in Ubiquitin-AMC assay in presence or absence of inhibitors. USP7 (5 nM) was pre-incubated for 6 hours at room temperature with different concentrations of inhibitors or DMSO as a control in 50 mM HEPES pH 7.5, 0.5 mM EDTA, 11 μM ovalbumin, and 5 mM DTT. Ubiquitin-AMC (Boston Biochem) was then added to a final concentration of 500 nM. The initial rate of the reaction was measured by collecting fluorescence data at one minute intervals over 30-minute period using a Clariostar fluorescence plate reader at excitation and emission wavelength of 345 and 445 nm respectively. The calculated initial rate values were plotted against inhibitor concentrations to determine IC50s. All the experimental data were plotted using Prism GraphPad. All assays for each compound were performed at least twice for each compound.
With `O=C(CCN1CCOCC1)Nc1ccc2c(=O)n(CC3(O)CCN(C(=O)[C@H](Cc4cc(F)cc(F)c4)NC(=O)CNC(=O)c4ccc5c(Cl)c6c(nc5c4)CCCC6)CC3)cnc2c1` the IC50 was < 20 nM.
`O=C(CCn1ccnc1)Nc1ccc2c(=O)n(CC3(O)CCN(C(=O)CCCCNC(=O)c4ccc5c(Cl)c6c(nc5c4)CCCC6)CC3)cnc2c1` was tested, and the IC50 was 20 to 100 nM.
For `CN1CCN(CCC(=O)Nc2ccc3c(=O)n(CC4(O)CCN(C(=O)CCNC(=O)c5ccc6c(Cl)c7c(nc6c5)CCCC7)CC4)cnc3c2)CC1`, the IC50 was 100 to 1000 nM.
With `CN1CCN(CCC(=O)Nc2ccc3c(=O)n(CC4(O)CCN(C(=O)[C@H](Cc5ccccc5)NC(=O)CNC(=O)c5ccc6c(Cl)c7c(nc6c5)CCCC7)CC4)cnc3c2)CC1` the IC50 was < 20 nM.
Work on `CN1CCN(CCC(=O)Nc2ccc3c(=O)n(CC4(O)CCN(C(=O)[C@H](CCCNC(=O)c5ccc6c(Cl)c7c(nc6c5)CCCC7)Cc5ccccc5)CC4)cnc3c2)CC1` [drawing 147] yielded an IC50 of 100 to 1000 nM.
In the case of `CN1CCN(CCC(=O)Nc2ccc3c(=O)n(CC4(O)CCN(C(=O)[C@H](Cc5ccccc5)NC(=O)CCNC(=O)c5ccc6c(Cl)c7c(nc6c5)CCCC7)CC4)cnc3c2)CC1`, the IC50 is reported as < 20 nM.
`CN1CCN(CCC(=O)Nc2ccc3c(=O)n(CC4(O)CCN(C(=O)[C@@H](CCCNC(=O)c5ccc6c(Cl)c7c(nc6c5)CCCC7)Cc5ccccc5)CC4)cnc3c2)CC1` [drawing 146] was tested, and the IC50 was < 20 nM.
For `O=C(CCN1CCOCC1)Nc1ccc2c(=O)n(CC3(O)CCN(C(=O)CCCCNC(=O)c4ccc5c(Cl)c6c(nc5c4)CCCC6)CC3)cnc2c1`, the IC50 was 100 to 1000 nM.
With `CN1CCN(CCC(=O)Nc2ccc3c(=O)n(CC4(O)CCN(C(=O)C(CCCNC(=O)c5ccc6c(Cl)c7c(nc6c5)CCCCC7)Cc5ccccc5)CC4)cnc3c2)CC1` (stereo not shown) the IC50 was < 20 nM.
With `CC(C)NC(=O)/C=C/c1ccc(C(=O)NCCC[C@@H](Cc2ccccc2)C(=O)N2CCC(O)(Cn3cnc4cc(NC(=O)CCN5CCOCC5)ccc4c3=O)CC2)cn1` the IC50 was > 1000 nM.
With `CN1CCN(CCC(=O)Nc2ccc3c(=O)n(CC4CCN(C(=O)C(CCCNC(=O)c5ccc6c(Cl)c7c(nc6c5)CCCC7)Cc5ccccc5)CC4)cnc3c2)CC1` (stereo not shown) the IC50 was > 1000 nM.
Compound `O=C(NCCC[C@@H](Cc1ccccc1)C(=O)N1CCC(O)(Cn2cnc3cc(N4CCOCC4)ccc3c2=O)CC1)c1ccc2c(Cl)c3c(nc2c1)CCCC3` has an IC50 of 100 to 1000 nM.
`CN1CCN(CCC(=O)Nc2ccc3c(=O)n(CC4(O)CCN(C(=O)C(CCCNC(=O)C5(C#N)CC5)Cc5ccccc5)CC4)cnc3c2)CC1` (stereo not shown) gave an IC50 of 100 to 1000 nM.
In the case of `CN1CCN(CCC(=O)Nc2ccc3c(=O)n(CC4(O)CCN(C(=O)C(CCCNC(=O)c5ccc6c(c5)CCCN6C(=O)CCl)Cc5ccccc5)CC4)cnc3c2)CC1` (stereo not shown), the IC50 is reported as 20 to 100 nM.
In the case of `O=C(CCN1CCOCC1)Nc1ccc2c(=O)n(CC3(O)CCN(C(=O)[C@@H](CCCNC(=O)c4ccc(/C=C/C(=O)N5CCCCC5)nc4)Cc4ccccc4)CC3)cnc2c1`, the IC50 is reported as > 1000 nM.
For `CN1CCN(CCC(=O)Nc2ccc3c(=O)n(CC4(O)CCN(C(=O)C(CCNC(=O)c5ccc6c(Cl)c7c(nc6c5)CCCC7)Cc5ccccc5)CC4)cnc3c2)CC1` (stereo not shown), the IC50 was < 20 nM.
`O=C(CCN1CCOCC1)Nc1ccc2c(=O)n(CC3(O)CCN(C(=O)[C@H](Cc4cscn4)NC(=O)CNC(=O)c4ccc5c(Cl)c6c(nc5c4)CCCC6)CC3)cnc2c1` was tested, and the IC50 was < 20 nM.
With `CN1CCN(CCC(=O)Nc2ccc3c(=O)n(CC4(O)CCN(C(=O)C(CCCNC(=O)c5cnccc5Cl)Cc5ccccc5)CC4)cnc3c2)CC1` (stereo not shown) the IC50 was > 1000 nM.
Work on `C=CS(=O)(=O)N1CCCc2cc(C(=O)NCCCC(Cc3ccccc3)C(=O)N3CCC(O)(Cn4cnc5cc(NC(=O)CCN6CCN(C)CC6)ccc5c4=O)CC3)ccc21` (stereo not shown) yielded an IC50 of 20 to 100 nM.
With `CN1CCN(CCC(=O)Nc2ccc3c(=O)n(CC4(O)CCN(C(=O)C(CCCNC(=O)c5ccc6c(Cl)c7c(nc6c5)CCCC7)Cc5ccccc5)CC4)cnc3c2)CC1` (stereo not shown) the IC50 was < 20 nM.
With `O=C(CCN1CCOCC1)Nc1ccc2c(=O)n(CC3(O)CCN(C(=O)[C@H](CC4CCCCC4)NC(=O)CNC(=O)c4ccc5c(Cl)c6c(nc5c4)CCCC6)CC3)cnc2c1` the IC50 was < 20 nM.
In the case of `CN1CCN(CCC(=O)Nc2ccc3c(=O)n(CC4(O)CCN(C(=O)CNC(=O)c5ccc6c(Cl)c7c(nc6c5)CCCC7)CC4)cnc3c2)CC1`, the IC50 is reported as > 1000 nM.
Work on `CN(C)CCC(=O)Nc1ccc2c(=O)n(CC3(O)CCN(C(=O)CCCCNC(=O)c4ccc5c(Cl)c6c(nc5c4)CCCC6)CC3)cnc2c1` yielded an IC50 of 20 to 100 nM.
In the case of `CN1CCN(CCC(=O)Nc2ccc3c(=O)n(CC4(O)CCN(C(=O)CCCCNC(=O)c5ccc6c(Cl)c7c(nc6c5)CCCC7)CC4)cnc3c2)CC1` [drawing 141], the IC50 is reported as 20 to 100 nM.
Work on `CN1CCN(CCC(=O)Nc2ccc3c(=O)n(CC4(O)CCN(C(=O)CCCNC(=O)c5ccc6c(Cl)c7c(nc6c5)CCCC7)CC4)cnc3c2)CC1` yielded an IC50 of 20 to 100 nM.

Same assay, conditions: Table 2; 6 hours pre-incubation, Ub-AMC; read-out: IC50 (μM), USP7 activity in USP7 assay
In the case of `CN1CCN(CCC(=O)Nc2ccc3c(=O)n(CC4(O)CCN(C(=O)C(CCCNC(=O)c5ccc(/C=C6\CCCCC6=O)cc5)Cc5ccccc5)CC4)cnc3c2)CC1` (stereo not shown), the IC50 is reported as 20 to 100 nM.
`C=CS(=O)(=O)NCCCC(Cc1ccccc1)C(=O)N1CCC(O)(Cn2cnc3cc(NC(=O)CCN4CCN(C)CC4)ccc3c2=O)CC1` (stereo not shown) gave an IC50 of 20 to 100 nM.
In the case of `CN1CCN(CCC(=O)Nc2ccc3c(=O)n(CC4(O)CCN(C(=O)C(CCCNC(=O)c5ccc6cc7c(nc6c5)CCCC7)Cc5ccccc5)CC4)cnc3c2)CC1` (stereo not shown) [drawing 180], the IC50 is reported as 100 to 1000 nM.
`O=C(CCN1CCN(C(=O)c2ccc3c(Cl)c4c(nc3c2)CCCC4)CC1)N1CCC(O)(Cn2cnc3cc(Cl)ccc3c2=O)CC1` showed an IC50 of 100 to 1000 nM.
For `O=C(CN1CCN(C(=O)c2ccc3c(Cl)c4c(nc3c2)CCCC4)CC1)N1CCC(O)(Cn2cnc3cc(Cl)ccc3c2=O)CC1`, the IC50 was 20 to 100 nM.
Compound `C#CCNCCCC(Cc1ccccc1)C(=O)N1CCC(O)(Cn2cnc3cc(NC(=O)CCN4CCN(C)CC4)ccc3c2=O)CC1` (stereo not shown) has an IC50 of 20 to 100 nM.

Same assay, conditions: Table 3; 6 hours pre-incubation, Ub-AMC; read-out: IC50 (μM), USP7 activity in USP7 assay
`C=CC(=O)Nc1ccccc1-c1cn([C@@H](Cc2ccccc2)C(=O)N2CCC(O)(Cn3cnc4cc(NC(=O)CCN5CCOCC5)ccc4c3=O)CC2)nn1` was tested, and the IC50 was > 1000 nM.
For `O=C(CCN1CCOCC1)Nc1ccc2c(=O)n(CC3(O)CCN(C(=O)C(CCCNC(=O)c4ccc5c(Cl)c6c(nc5c4)CCCC6)Cc4ccc(F)cc4F)CC3)cnc2c1` (stereo not shown), the IC50 was 20 to 100 nM.
In the case of `CN1CCN(CCC(=O)Nc2ccc3c(=O)n(CC4(O)CCN(C(=O)C(CCCNC(=O)c5ccc6c(Cl)cc(-c7ccccc7)nc6c5)Cc5ccccc5)CC4)cnc3c2)CC1` (stereo not shown), the IC50 is reported as 100 to 1000 nM.
Compound `CN1CCN(CCC(=O)Nc2ccc3c(=O)n(CC4(O)CCN(C(=O)C(CCCNC(=O)c5ccc6c(Cl)cc(-c7cscn7)nc6c5)Cc5ccccc5)CC4)cnc3c2)CC1` (stereo not shown) has an IC50 of 20 to 100 nM.
For `O=C(CCN1CCOCC1)Nc1ccc2c(=O)n(CC3(O)CCN(C(=O)[C@H](Cc4ccccc4)NC(=O)COc4cccc5c(Cl)c6c(nc45)CCCC6)CC3)cnc2c1`, the IC50 was 20 to 100 nM.
With `CN1CCN(CCC(=O)Nc2ccc3c(=O)n(CC4(O)CCN(C(=O)C(CCCNC(=O)c5ccc6c(Cl)c7c(nc6c5)CCCC7)c5ccccc5)CC4)cnc3c2)CC1` (stereo not shown) the IC50 was > 1000 nM.
In the case of `O=C(NCCC[C@@H](Cc1ccccc1)C(=O)N1CCC(O)(Cn2cnc3c(N4CCOCC4)cccc3c2=O)CC1)c1ccc2c(Cl)c3c(nc2c1)CCCC3`, the IC50 is reported as 20 to 100 nM.
In the case of `C=CC(=O)Nc1cccc(-c2cn([C@@H](Cc3ccccc3)C(=O)N3CCC(O)(Cn4cnc5cc(NC(=O)CCN6CCOCC6)ccc5c4=O)CC3)nn2)c1`, the IC50 is reported as > 1000 nM.
In the case of `Cc1cc(Cl)c2ccc(C(=O)NCCCC(Cc3ccccc3)C(=O)N3CCC(O)(Cn4cnc5cc(NC(=O)CCN6CCOCC6)ccc5c4=O)CC3)cc2n1` (stereo not shown), the IC50 is reported as > 1000 nM.
`CN1CCN(CCC(=O)Nc2ccc3c(=O)n(CC4(O)CCN(C(=O)[C@@H](Cc5ccccc5)NC(=O)CNC(=O)c5ccc6c(Cl)c7c(nc6c5)CCCC7)CC4)cnc3c2)CC1` was tested, and the IC50 was 20 to 100 nM.
In the case of `O=C(CCN1CCOCC1)Nc1ccc2c(=O)n(CC3(O)CCN(C(=O)C(CCCNC(=O)c4ccc5c(O)ccnc5c4)Cc4ccccc4)CC3)cnc2c1` (stereo not shown), the IC50 is reported as > 1000 nM.
Compound `O=C(CCN1CCOCC1)Nc1ccc2c(=O)n(CC3(O)CCN(C(=O)C(CCCNC(=O)c4ccc5c(Cl)c6c(nc5c4)CCCC6)Cc4ccc(F)c(C(F)(F)F)c4)CC3)cnc2c1` (stereo not shown) has an IC50 of 20 to 100 nM.
Work on `O=C(CCN1CCOCC1)Nc1ccc2c(=O)n(CC3(O)CCN(C(=O)[C@H](Cc4ccccc4)NC(=O)COc4ccc5c(Cl)c6c(nc5c4)CCCC6)CC3)cnc2c1` yielded an IC50 of 100 to 1000 nM.
Compound `CN1CCN(c2cccc3c(=O)n(CC4(O)CCN(C(=O)[C@@H](CCCNC(=O)c5ccc6c(Cl)c7c(nc6c5)CCCC7)Cc5ccccc5)CC4)cnc23)CC1` has an IC50 of 20 to 100 nM.

Same assay, conditions: purified enzyme and native USP7
`C[C@@H]1NC(=O)N[C@@H]1CCCCCC(=O)NCCOCCOCCOCCC(=O)N1CCN(CC(=O)Nc2ccc3c(=O)n(CC4(O)CCN(C(=O)CCCCNC(=O)c5ccc6c(Cl)c7c(nc6c5)CCCC7)CC4)cnc3c2)CC1` [compound 6-DTB, 9-chloro-N-(5-(4-hydroxy-4-((7-(2-(4-(19-((4R,5S)-5-methyl-2-oxoimidazolidin-4-yl)-14-oxo-4,7,10-trioxa-13-azanonadecanoyl)piperazin-1-yl)acetamido)-4-oxoquinazolin-3(4H)-yl)methyl)piperidin-1-yl)-5-oxopentyl)-5,6,7,8-tetrahydroacridine-3-carboxamide] was tested, and the USP7 inhibitory activity was “retained USP7 inhibitory activity”.
